{"source": "patent US7572762B1", "about": "“Materials and methods relating to the induction of apoptosis in target cells” (University of Dundee, priority 1998, dated 2009)", "molecules": {"B1": {"name": "proenkephalin: proenkephalin destined for the secretory pathway, overexpressed from transiently transfected plasmid DNA (protein, UniProt P01210 1-267, looked up)", "chain": "MARFLTLCTWLLLLGPGLLATVRAECSQDCATCSYRLVRPADINFLACVMECEGKLPSLKIWETCKELLQLSKPELPQDGTSTLRENSKPEESHLLAKRYGGFMKRYGGFMKKMDELYPMEPEEEANGSEILAKRYGGFMKKDAEEDDSLANSSDLLKELLETGDNRERSHHQDGSDNEEEVSKRYGGFMRGLKRSPQLEDEAKELQKRYGGFMRRVGRPEWWMDYQKRYGGFLKRFAEALPSDEEGESYSKEVPEMEKRYGGFMRF", "modifications": "full-length", "notes": "proenkephalin destined for the secretory pathway, overexpressed from transiently transfected plasmid DNA"}}, "key": {"[1]": {"test_system": "293 cells (transformed kidney epithelial cells)", "test": "FACS (propidium iodide) analysis of apoptosis, 293 cells", "type": "cell-based, human", "parameters": "cell population induced to apoptose: dose or concentration left out as unconfirmed"}, "[2]": {"test_system": "p53 null lung carcinoma (H1299) cells", "test": "FACS analysis of apoptosis and cell cycle, H1299 cells", "type": "cell-based, human", "from_the_text": "FIG. 8 illustrates a representative FACS (fluorescence activated cell sorting) profile obtained from the experiment indicated; horizontal axis denote DNA content of the cells and the vertical axis the numbers of cells that have a particular DNA content. Apoptotic cells have a subnormal DNA content and are represented as a peak to the extreme left of the profile (sub-G1); viable cells are represented in G1 and G2/M peaks which correspond to these phases of the cell cycle. Where percentages are provided, these indicate cells in sub-G1, G1 or G2/M phases, as indicated, as a percent of the total cell population. In all cases, the existence of apoptotic cells was confirmed by additional means such as microscopic examination.\nBar charts show quantitative data obtained from representative FACS analyses for the experiments indicated. In all cases, numbers of cells that are apoptotic (sub-G1), as a percentage of the total cell population, are depicted by diagonal-hatched bars; numbers of cells that are viable and in G1 (G1/S) phase of the cell cycle, as a percentage of the total cell population, are depicted by stippled bars; viable cells in G2/M phase of the cell cycle are depicted by horizontal-hatched bars.\nThe experiments described in the examples were performed using methods well-known to those skilled in the art and documented in standard text books in the field (e.g. Chapters 4 and 5, Methods in Cell Biology Vol 46 editors L. M. Schwartz and B. A. Osborne, Academic Press Ltd, London 1995 provides inter alia details on detection of apoptosis and cell division cycle arrest by FACS)."}, "[3]": {"test_system": "control B lymphoid (Daudi) cell line", "test": "FACS analysis of control B lymphoid cells", "type": "cell-based", "settings": "for effect on control B cells: rimcazole 0.1 mM, 0.01 mM, 0.001 mM (FIG. 11c), haloperidol not shown; for apoptotic (sub-G1) cells: 48 hours, untreated basal apoptosis approximately 50%"}, "[4]": {"test_system": "MDA MB 468 human breast carcinoma xenografts", "test": "Human breast carcinoma xenograft growth in athymic mice", "type": "in vivo", "settings": "10 mg/kg/day intraperitoneal, day 45; all or selected tumours"}, "[5]": {"settings": "mouse, in vivo", "procedure": "All drugs were dissolved in sterile water for injection and frozen as ˜2 ml aliquots, except haloperidol which was stored as a powder at RT and made up fresh each day in 45% cyclodextrin. The mice were housed in filter boxes in Maximiser laminar flow cabinets and fed sterilized food and water. All procedures were carried out in class 1 laminar flow hoods using sterile equipment and reagents. The mice were dosed daily by an intraperitoneal route (combined therapies dosed simultaneously) and body weights and tumour measurements recorded at frequent intervals."}, "[6]": {"test_system": "L428 Hodgkins lymphoma cells", "test": "FACS analysis of apoptosis and cell cycle, L428 cells", "type": "cell-based, human", "settings": "48 hours"}, "[7]": {"test_system": "Saos-2::p53^teti cells", "test": "FACS analysis of osteosarcoma cells with tetracycline-inducible p53", "type": "cell-based, human"}, "[8]": {"test_system": "human colon carcinoma (HT29) cells", "test": "FACS analysis of apoptosis, HT29 cells", "type": "cell-based"}, "[9]": {"test_system": "MCF7 cells", "test": "FACS analysis of hormone responsive breast carcinoma cells", "type": "cell-based, human", "settings": "rimcazole 0.001 mM, 48 hours"}, "[10]": {"test_system": "MDA MB 231 cells", "test": "FACS analysis of hormone unresponsive breast carcinoma cells", "type": "cell-based, human", "settings": "rimcazole 0.001 mM, 48 hours"}, "[11]": {"test_system": "MDA MB 468 cells", "test": "FACS analysis of hormone insensitive breast cancer cells", "type": "cell-based, human"}, "[12]": {"test_system": "MCF 7::p53^val135 cells", "test": "Phase micrographs of MCF 7 cells with temperature sensitive p53", "type": "cell-based, human"}, "[13]": {"test_system": "wild-type Saos-2 cells", "test": "Wild-type Saos-2 cells lacking p53", "type": "cell-based, human", "settings": "low dose rimcazole combined with doxycycline"}}}
{"molecule": "O=C(CCCN1CCC(O)(c2ccc(Cl)cc2)CC1)c1ccc(F)cc1", "note": "[haloperidol, 4(4-(4-chlorophenyl)-4-hydroxy-1-piperidinyl)-1-(4-fluorophenyl)-1-Butanone]", "values": [{"measurement": "apoptotic cells", "setting": "[1]; haloperidol 10^−5 M combined with transfected RelA(p65)", "value": 47, "unit": "%"}, {"measurement": "apoptotic cells", "setting": "[1]; haloperidol 10^−5 M on its own", "value": "2-3%"}, {"measurement": "sub-G1 apoptotic cells, % of total cell population", "setting": "[1]; haloperidol without IκB (FIG. 9c)", "value": 58, "unit": "%"}, {"measurement": "sub-G1 apoptotic cells, % of total cell population", "setting": "[1]; non-degradable mutant IκB plasmid transfected prior to haloperidol", "value": 5, "unit": "%"}, {"measurement": "apoptosis", "setting": "[2]; haloperidol 10^−5M alone", "value": 4, "unit": "%"}, {"measurement": "apoptosis", "setting": "[2]; haloperidol 10^−5M combined with TNF", "value": 59, "unit": "%"}, {"measurement": "effect on control B cells", "setting": "[3]", "value": "unaffected"}, {"measurement": "tumour growth inhibition (tumour weights at excision)", "setting": "[4]", "value": "growth inhibition"}, {"measurement": "ill effects / toxicity in mice", "setting": "[5]", "value": "transient sleepiness"}]}
{"molecule": "Oc1ccc2c3c1O[C@H]1c4[nH]c5ccccc5c4C[C@@]4(O)[C@@H](C2)N(CC2CC2)CC[C@]314", "note": "[naltrindole]", "values": [{"measurement": "induction of death", "setting": "[1]", "value": "fails to induce death"}, {"measurement": "induction of sub-G1 (apoptotic) cells", "setting": "[1]", "value": "marked induction"}, {"measurement": "G2/M cell cycle arrest", "setting": "[2]", "value": "appearance of a G2/M peak"}, {"measurement": "induction of apoptosis", "setting": "[2]", "value": "marked induction of apoptosis"}, {"measurement": "apoptosis induction", "setting": "[6]; 10^−4M", "value": "majority of the cell population"}, {"measurement": "apoptosis induction", "setting": "[6]; 10^−5M", "value": "substantial amount of apoptosis"}, {"measurement": "mitotic arrest (G2/M cells)", "setting": "[6]; 10^−5M", "value": "increase in percentage of G2/M cells"}, {"measurement": "apoptotic (sub-G1) cells", "setting": "[3]", "value": "approximately 50%"}]}
{"molecule": "C[C@H]1c2cccc(O)c2C(=O)C2=C(O)[C@]3(O)C(=O)C(C(N)=O)=C(O)[C@@H](N(C)C)[C@@H]3[C@@H](O)[C@@H]21", "note": "[doxycycline]", "values": [{"measurement": "cells undergoing apoptosis, % of total population", "setting": "[7]; low dose doxycycline alone", "value": 4, "unit": "%"}]}
{"molecule": "COc1ccc2c(c1OC)C(=O)O[C@@H]2[C@H]1c2c(cc3c(c2OC)OCO3)CCN1C", "note": "(relative stereo) [noscapine, (S-(R*,S*))-6,7-Dimethoxy-3-(5,6,7,8-tetrahydro-4-methoxy-6-methyl-1,3-dioxolo(4,5-g)isoquinolin-5-yl)-1(3H)-Isobenzofuranone]", "values": [{"measurement": "apoptotic cells, % of total cell population", "setting": "[2]; 10^−4M combined with TNF 5 ng/ml", "value": 74, "unit": "%"}, {"measurement": "apoptotic cells", "setting": "[2]; 10^−4M, 48 hours, alone", "value": 39, "unit": "%"}, {"measurement": "apoptosis, % of cell population", "setting": "[8]; 10^−4M on its own", "value": 67, "unit": "%"}, {"measurement": "apoptosis", "setting": "[8]; 10^−4M with TNF added", "value": "additional increase"}, {"measurement": "apoptosis induction", "setting": "[6]; 10^−4M", "value": "majority of the cell population"}, {"measurement": "apoptosis induction", "setting": "[6]; 10^−5M", "value": "substantial amount of apoptosis"}, {"measurement": "mitotic arrest (G2/M cells)", "setting": "[6]; 10^−5M", "value": "increase in percentage of G2/M cells"}, {"measurement": "apoptotic (sub-G1) cells", "setting": "[3]", "value": "approximately 50%"}]}
{"molecule": "C[C@@H]1CN(CCCn2c3ccccc3c3ccccc32)C[C@H](C)N1", "note": "[rimcazole, cis-9-[3-(3,5-Dimethyl-1-piperazinyl)propyl]-9H-carbazole]", "values": [{"measurement": "cell population induced to apoptose", "setting": "[1]; rimcazole alone", "value": 1, "unit": "%"}, {"measurement": "cell population induced to apoptose", "setting": "[1]; rimcazole in combination with transiently overexpressed p53", "value": 75, "unit": "%"}, {"measurement": "apoptosis", "setting": "[2]; rimcazole 0.01 mM in combination with trans-U50488 0.1 mM", "value": 67, "unit": "%"}, {"measurement": "apoptosis, % of cells", "setting": "[2]; sublethal dose alone", "value": 4, "unit": "%"}, {"measurement": "apoptosis, % of cells", "setting": "[2]; sublethal dose of rimcazole with sublethal dose of TNF", "value": 61, "unit": "%"}, {"measurement": "effect on control B cells", "setting": "[3]", "value": "unaffected"}, {"measurement": "apoptosis", "setting": "[9]", "value": 6, "unit": "%"}, {"measurement": "proportion of G2/M cells", "setting": "[9]", "value": 32, "unit": "%"}, {"measurement": "apoptotic cells, % of total cell population", "setting": "[10]", "value": 25, "unit": "%"}, {"measurement": "proportion of G2/M cells", "setting": "[10]", "value": 62, "unit": "%"}, {"measurement": "apoptotic cells", "setting": "[11]; 0.001 mM, approximately 48 hours", "value": 16, "unit": "%"}, {"measurement": "apoptosis, % of cell population", "setting": "[11]; 0.01 millimoles per liter, approximately 48 hours", "value": 79, "unit": "%"}, {"measurement": "cells induced to apoptose", "setting": "[11]; rimcazole 0.001 mM combined with cis-U50488 0.1 mM", "value": 83, "unit": "%"}, {"measurement": "apoptosis (phase micrographs)", "setting": "[12]; 32 degC (p53 wild-type conformation), e.g. 0.001 mM", "value": "marked induction of apoptosis"}, {"measurement": "apoptosis (phase micrographs)", "setting": "[12]; 37 degC", "value": "largely unaffected"}, {"measurement": "apoptosis (phase micrographs)", "setting": "[12]; 37 degC (p53 largely inactive), 0.1 mM", "value": "Apoptosis is induced"}, {"measurement": "cell population induced to apoptose", "setting": "[7]; rimcazole 100 nM alone", "value": "approximately 5%"}, {"measurement": "apoptotic cells", "setting": "[7]; rimcazole 100 nM combined with doxycycline 0.02 μg/ml", "value": 85, "unit": "%"}, {"measurement": "effect of combination on apoptosis", "setting": "[13]", "value": "no effect"}, {"measurement": "tumour growth inhibition (tumour weights at excision)", "setting": "[4]", "value": "significant tumour growth inhibition"}]}
{"molecule": "B1", "values": [{"measurement": "induction of apoptosis", "setting": "[1]; alone, 48 hours, TNF 5 ng/ml, proenkephalin 5 μg plasmid DNA (secretory) transfected", "value": "no induction of apoptosis"}, {"measurement": "reduction in percentage of sub-G1 (apoptotic) cells", "setting": "[1]; proenkephalin + TNF, co-transfection of 5 μg IκB plasmid", "value": "greater than 50%"}, {"measurement": "percentage of apoptotic (sub-G1) cells", "setting": "[1]; proenkephalin overexpressed in combination with TNF 5 ng/ml", "value": "marked increase"}]}
